Our source for the activity values is patent US20250388604A1, “Compounds and Their Use as PDE4 Activators” (Mironid Limited, priority 2022, published 2025).

Molecules are shown by their SMILES.

The subject of the first test is m-IMCD3 cells. The test can be described thus: Inhibition of PGE2-stimulated in vitro cyst formation in m-IMCD3 cells. In kind it is cell-based, mouse. The note with it: Mus musculus, mIMCD3, 144 h, 3 μM; mean cyst area, 100% for (DMSO + PGE2) and 0% for DMSO control; 6 days of culture; read-out: % Cyst area after incubation with 3 μM test compound. An outline of the steps:
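m-IMCD3 cells embedded in collagen I/Matrigel 3D culture; 18–24 h after plating, compound (0.1% DMSO final) plus PGE2 (100 nM final) added, replenished after 2 or 3 days. After 6 days, z-stack imaging gave mean cyst area, normalized to DMSO+PGE2 (100%) and DMSO (0%).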
On to `CC(C)C(O)C(=O)N1Cc2sc(N3C4CCC3CNC4)nc2C(C)(C)C1` (stereo not shown) [Example 259, 1-(2-(3,8-diazabicyclo[3.2.1]octan-8-yl)-7,7-dimethyl-6,7-dihydrothiazolo[5,4-c]pyridin-5(4H)-yl)-2-hydroxy-3-methylbutan-1-one], for which the activity at 3 µM is -6%. On the same count and under the same terms, the value for `O=C(COc1ccccc1OCCO)N1CCc2nc(N3C4CCC3CNC4)sc2C1` [Example 250, 1-(2-(3,8-diazabicyclo[3.2.1]octan-8-yl)-6,7-dihydrothiazolo[5,4-c]pyridin-5(4H)-yl)-2-(2-(2-hydroxyethoxy)phenoxy)ethan-1-one] was 17%; that for `CN1CC2CCC(C1)N2c1nc2c(s1)CN(C(=O)COc1ccc(F)cc1)CC2` [Example 301, 2-(4-fluorophenoxy)-1-(2-(3-methyl-3,8-diazabicyclo[3.2.1]octan-8-yl)-6,7-dihydrothiazolo[5,4-c]pyridin-5(4H)-yl)ethan-1-one] was -6%. On the same count and under the same terms, for `O=C(c1cccc2c1OCC2)N1CCc2nc(N3C4CCC3CNC4)sc2C1` [Example 230, (2-(3,8-diazabicyclo[3.2.1]octan-8-yl)-6,7-dihydrothiazolo[5,4-c]pyridin-5(4H)-yl)(2,3-dihydrobenzofuran-7-yl)methanone] the value was 22%; for `CC(C)Oc1ccccc1C(=O)N1CCc2nc(N3C4CCC3CNC4)sc2C1` [Example 211, (2-(3,8-diazabicyclo[3.2.1]octan-8-yl)-6,7-dihydrothiazolo[5,4-c]pyridin-5(4H)-yl)(2-isopropoxyphenyl)methanone], 40%. For the molecule `CC(C)(CC(=O)N1CCc2nc(N3C4CCC3CNC4)sc2C1)C(F)F` [Example 175, 1-(2-(3,8-diazabicyclo[3.2.1]octan-8-yl)-6,7-dihydrothiazolo[5,4-c]pyridin-5(4H)-yl)-4,4-difluoro-3,3-dimethylbutan-1-one], the activity at 3 µM was -5%. Same read-out and setting: for `CC1(C)CN(C(=O)c2ccc(F)nc2)Cc2sc(N3C4CCC3CNC4)nc21` [Example 264, (2-(3,8-diazabicyclo[3.2.1]octan-8-yl)-7,7-dimethyl-6,7-dihydrothiazolo[5,4-c]pyridin-5(4H)-yl)(6-fluoropyridin-3-yl)methanone] the value was -1%; for `CCN1CC2CCC(C1)N2c1nc2c(s1)CN(S(=O)(=O)Cc1ccccc1)CC2` [Example 289, 5-(benzylsulfonyl)-2-(3-ethyl-3,8-diazabicyclo[3.2.1]octan-8-yl)-4,5,6,7-tetrahydrothiazolo[5,4-c]pyridine], -7%. Still for that read-out and setting: the value for `O=C(c1ccccc1C1CC1)N1CCc2nc(N3C4CCC3CNC4)sc2C1` [Example 220, (2-(3,8-diazabicyclo[3.2.1]octan-8-yl)-6,7-dihydrothiazolo[5,4-c]pyridin-5(4H)-yl)(2-cyclopropylphenyl)methanone] was -5%; that for `O=C(c1ccc(F)nc1)N1CCc2nc(N3C4CCC3CNC4)sc2C1` [Example 200, (2-(3,8-diazabicyclo[3.2.1]octan-8-yl)-6,7-dihydrothiazolo[5,4-c]pyridin-5(4H)-yl)(6-fluoropyridin-3-yl)methanone] was 4%; that for `O=C(c1cccc(C(F)F)c1)N1CCc2nc(N3C4CCC3CNC4)sc2C1` [Example 199, (2-(3,8-diazabicyclo[3.2.1]octan-8-yl)-6,7-dihydrothiazolo[5,4-c]pyridin-5(4H)-yl)(3-(difluoromethyl)phenyl)methanone] was 3%. The same measure, in the same setting: the value for `O=C(CC1CCCC1)N1Cc2sc(N3C4CCC3CNC4)nc2C(F)(F)C1` [Example 270, 1-(2-(3,8-diazabicyclo[3.2.1]octan-8-yl)-7,7-difluoro-6,7-dihydrothiazolo[5,4-c]pyridin-5(4H)-yl)-2-cyclopentylethan-1-one] was 2%; that for `O=C(c1ccccc1OC(F)(F)F)N1CCc2nc(N3C4CCC3CNC4)sc2C1` [Example 207, (2-(3,8-diazabicyclo[3.2.1]octan-8-yl)-6,7-dihydrothiazolo[5,4-c]pyridin-5(4H)-yl)(2-(trifluoromethoxy)phenyl)methanone] was 0%; that for `O=C(c1cc2ccccc2[nH]1)N1CCc2nc(N3C4CCC3CNC4)sc2C1` [Example 188, (2-(3,8-diazabicyclo[3.2.1]octan-8-yl)-6,7-dihydrothiazolo[5,4-c]pyridin-5(4H)-yl)(1H-indol-2-yl)methanone] was 3%. In the case of `O=S(=O)(Cc1ccc(F)cc1)N1CCc2nc(N3CCNCC3)sc2C1` [Example 287, 5-((4-fluorobenzyl)sulfonyl)-2-(piperazin-1-yl)-4,5,6,7-tetrahydrothiazolo[5,4-c]pyridine], the activity at 3 µM was -3%.

Still in this test, the particulars now being: Mus musculus, mIMCD3, 144 h, 10 μM; mean cyst area, 100% for (DMSO + PGE2) and 0% for DMSO control; 6 days of culture; read-out: % Cyst area after incubation with 10 μM test compound.
For the molecule `O=C(CC1CCCC1)N1Cc2sc(N3C4CCC3CNC4)nc2C2(CCOCC2)C1` [Example 266, 1-(2′-(3,8-diazabicyclo[3.2.1]octan-8-yl)-2,3,5,6-tetrahydro-4′H-spiro[pyran-4,7′-thiazolo[5,4-c]pyridin]-5′(6′H)-yl)-2-cyclopentylethan-1-one], the activity at 10 µM is 40%. The same measure, in the same setting: the value for `O=C(CC1CCC2(CC1)COC2)N1CCc2nc(N3C4CCC3CNC4)sc2C1` [Example 155, 1-(2-(3,8-diazabicyclo[3.2.1]octan-8-yl)-6,7-dihydrothiazolo[5,4-c]pyridin-5(4H)-yl)-2-(2-oxaspiro[3.5]nonan-7-yl)ethan-1-one] was -3%. The same measure, in the same setting: for `COc1ccccc1OCC(=O)N1CCc2nc(N3C4CCC3CNC4)sc2C1` [Example 138, 1-(2-(3,8-diazabicyclo[3.2.1]octan-8-yl)-6,7-dihydrothiazolo[5,4-c]pyridin-5(4H)-yl)-2-(2-methoxyphenoxy)ethan-1-one] the value was 0%; for `O=C(COc1ccc(F)cc1F)N1CCc2nc(N3C4CCC3CNC4)sc2C1` [Example 148, 1-(2-(3,8-diazabicyclo[3.2.1]octan-8-yl)-6,7-dihydrothiazolo[5,4-c]pyridin-5(4H)-yl)-2-(2,4-difluorophenoxy)ethan-1-one], 3%; for `O=C(COc1ccc(F)cc1)N1CCc2nc(N3C4CCC3CNC4)sc2C1` [Example 21, 1-(2-(3,8-diazabicyclo[3.2.1]octan-8-yl)-6,7-dihydrothiazolo[5,4-c]pyridin-5(4H)-yl)-2-(4-fluorophenoxy)ethan-1-one], -1%. Still for that read-out and setting: the value for `CN1CC2CCC(C1)N2c1nc2c(s1)CN(C(=O)CC1CCC(F)(F)CC1)C2` [Example 84, 2-(4,4-difluorocyclohexyl)-1-(2-(3-methyl-3,8-diazabicyclo[3.2.1]octan-8-yl)-4,6-dihydro-5H-pyrrolo[3,4-d]thiazol-5-yl)ethan-1-one] was 1%. Consider `Cc1cc(F)ccc1OCC(=O)N1CCc2nc(N3C4CCC3CNC4)sc2C1` [Example 145, 1-(2-(3,8-diazabicyclo[3.2.1]octan-8-yl)-6,7-dihydrothiazolo[5,4-c]pyridin-5(4H)-yl)-2-(4-fluoro-2-methylphenoxy)ethan-1-one], for which the activity at 10 µM came to 17%.

Consider `CC1(C(=O)N2CCc3nc(N4C5CCC4CNC5)sc3C2)CCCC1` [Example 150, (2-(3,8-diazabicyclo[3.2.1]octan-8-yl)-6,7-dihydrothiazolo[5,4-c]pyridin-5(4H)-yl)(1-methylcyclopentyl)methanone], for which the activity at 10 µM is 1%. The same measure, in the same setting: for `O=C(N1CCc2nc(N3C4CCC3CNC4)sc2C1)N1CCC2(CCCC2)C1` [Example 122, (2-(3,8-diazabicyclo[3.2.1]octan-8-yl)-6,7-dihydrothiazolo[5,4-c]pyridin-5(4H)-yl)(2-azaspiro[4.4]nonan-2-yl)methanone] the value was -8%; for `O=C(NC1CCC(F)(F)CC1)N1CCc2nc(N3C4CCC3CNC4)sc2C1` [Example 58, 2-(3,8-diazabicyclo[3.2.1]octan-8-yl)-N-(4,4-difluorocyclohexyl)-6,7-dihydrothiazolo[5,4-c]pyridine-5(4H)-carboxamide], -3%. Still for that read-out and setting: for `O=C(COC1CCCC1)N1CCc2nc(N3C4CCC3CNC4)sc2C1` [Example 149, 1-(2-(3,8-diazabicyclo[3.2.1]octan-8-yl)-6,7-dihydrothiazolo[5,4-c]pyridin-5(4H)-yl)-2-(cyclopentyloxy)ethan-1-one] the value was -2%; for `CC(C)(C(=O)N1CCc2nc(N3C4CCC3CNC4)sc2C1)C1CCCC1` [Example 146, 1-(2-(3,8-diazabicyclo[3.2.1]octan-8-yl)-6,7-dihydrothiazolo[5,4-c]pyridin-5(4H)-yl)-2-cyclopentyl-2-methylpropan-1-one], 16%. Same read-out and setting: the value for `O=C(NC1CCC(F)(F)CC1)N1CCn2nc(N3C4CCC3CNC4)cc2C1` [Example 70, 2-(3,8-diazabicyclo[3.2.1]octan-8-yl)-N-(4,4-difluorocyclohexyl)-6,7-dihydropyrazolo[1,5-a]pyrazine-5(4H)-carboxamide] was 7%; that for `O=C(C(O)c1ccc(F)cc1)N1CCc2nc(N3C4CCC3CNC4)sc2C1` (stereo not shown) [Example 132, 1-(2-(3,8-diazabicyclo[3.2.1]octan-8-yl)-6,7-dihydrothiazolo[5,4-c]pyridin-5(4H)-yl)-2-(4-fluorophenyl)-2-hydroxyethan-1-one] was -6%.

Regarding `Cc1cc(CC(=O)N2CCc3nc(N4C5CCC4CNC5)sc3C2)cc(C)n1` [Example 153, 1-(2-(3,8-diazabicyclo[3.2.1]octan-8-yl)-6,7-dihydrothiazolo[5,4-c]pyridin-5(4H)-yl)-2-(2,6-dimethylpyridin-4-yl)ethan-1-one], the activity at 10 µM worked out at 31%. For `CC1(NC(=O)N2CCc3nc(N4C5CCC4CNC5)sc3C2)CCCC1` [Example 125, 2-(3,8-diazabicyclo[3.2.1]octan-8-yl)-N-(1-methylcyclopentyl)-6,7-dihydrothiazolo[5,4-c]pyridine-5(4H)-carboxamide], the activity at 10 µM is -11%.
